Values quoted from earlier work as cited in patent US7622458B2, “Combination of ET-743 and a 5-fluorouracil pro-drug for cancer treatment” (Pharma Mar, S.A.U., priority 2004, dated 2009).

Columns and labels:
[1] = system: human tumor xenografts, including melanoma and ovarian and breast carcinoma; settings: xenografts grown in athymic mice
[2] = system: sarcoma and breast and ovarian carcinoma; settings: 1-, 3-, 24-, 72-hour i.v. infusion and 1 hour daily x5 schedules; patients with sarcoma and breast and ovarian carcinoma

With `COc1cc2c(cc1O)CCN[C@]21CS[C@@H]2c3c(OC(C)=O)c(C)c4c(c3[C@H](COC1=O)N1[C@@H]2[C@H]2c3c(cc(C)c(OC)c3O)C[C@@H]([C@@H]1O)N2C)OCO4` [ET-743, ecteinascidin 743] as the molecule, how does the “Antineoplastic activity against human tumor xenografts” value [1] read?
The value was “potent antineoplastic activity”.

What about the “Clinical responses in phase I studies” value [2] of the same molecule?
The value was “Promising responses”.
